Usually MIC stands for the least concentration at which growth counts as inhibited. Lower therefore signals greater potency.

SMILES strings stand for the structures. ≈ marks a conversion by molar mass, not a printed value. Where “and” joins values, the source holds several entries; their conditions need not be identical. Equal values may be shown once. A value given as a limit tells only on which side of the number the result lay.

For three compounds, MIC results are on record in DBAASP.

Test systems include Staphylococcus aureus; Escherichia coli K88; Escherichia coli ER2566; Escherichia coli 078; Escherichia coli UB1005.
Common to all, as to experiment: ≥ marks a high value that may be exact or a test limit, other limits are often not marked, values filed in µg/mL are converted to µM
The test system of assay [1] is Staphylococcus aureus ATCC 25923.
Assay [2] has as its system Streptococcus sanguinis ATCC 10556.
Assay [3] has as its system Candida albicans ATCC 5314.
In assay [4] the test system is Streptococcus mutans ATCC UA159.
Assay [5] deals with Salmonella enterica subsp. enterica serovar Pullorum C79-13.
Assay [6] concerns Salmonella enterica subsp. enterica serovar Typhimurium ATCC 14028.
Assay [7] deals with Salmonella enterica subsp. enterica serovar Typhimurium C77-31.
Assay [8] has as its system Escherichia coli CMCC 44102.
Assay [9] deals with Bacillus subtilis ATCC 11060.
For assay [10], the system named is Staphylococcus epidermidis ATCC 12228.
Assay [11] concerns Pseudomonas aeruginosa ATCC 21630.
Assay [12] relates to Escherichia coli ATCC 25922.
The subject of assay [13] is Staphylococcus aureus ATCC 29213.
Assay [14] deals with Pseudomonas aeruginosa ATCC 21625.
Assay [15] deals with Pseudomonas aeruginosa ATCC 10419.
The subject of assay [16] is Pseudomonas aeruginosa ATCC 27853.
Assay [17] has as its system Enterococcus faecalis ATCC 29212.
The test system of assay [18] is Escherichia coli CVCC 1515.
Assay [19] concerns Acinetobacter baumannii ATCC 17978D-5.
The subject of assay [20] is Streptococcus pneumoniae ATCC 49619.
Assay [21] deals with Klebsiella aerogenes ATCC 13048.
Assay [22] has as its system Pseudomonas aeruginosa ATCC 19660.
Assay [23] deals with Staphylococcus aureus ATCC 33591.
The test system of assay [24] is Enterococcus faecium ATCC 700221.
For assay [25], the system named is Staphylococcus epidermidis ATCC 51625.

Turning to `CC[C@H](C)[C@H](NC(=O)[C@H](CCCCN)NC(=O)[C@H](CCCN=C(N)N)NC(=O)[C@@H](NC(=O)[C@@H](N)Cc1ccc(O)cc1)[C@@H](C)CC)C(=O)N[C@@H](CCCN=C(N)N)C(=O)N[C@@H](CCCN=C(N)N)C(=O)N[C@@H](Cc1ccccc1)C(=O)N[C@@H](Cc1ccccc1)C(=O)N[C@@H](CCCCN)C(=O)N[C@@H](CCCCN)C(=O)N[C@@H](CCCN=C(N)N)C(=O)N[C@@H](Cc1ccccc1)C(=O)N[C@@H](CCCCN)C(=O)N[C@@H](Cc1ccccc1)C(=O)N[C@@H](CCCN=C(N)N)C(=O)N[C@@H](CCCCN)C(=O)N[C@@H](CCCCN)C(N)=O` [YIRKIRRFFKKRFKFRKK], the MIC in assay [1] worked out at 25.1 µM (≈ 64 µg/mL); in [2], 25.1 µM (≈ 64 µg/mL); in assay [3], 12.6 µM (≈ 32 µg/mL); in assay [4] it was 6.28 µM (≈ 16 µg/mL); in the assay with Staphylococcus aureus, 12.6 µM (≈ 32 µg/mL).

`CC[C@H](C)[C@H](NC(=O)[C@H](CCCCN)NC(=O)[C@H](CCCCN)NC(=O)[C@H](CC(C)C)NC(=O)[C@H](CCCN=C(N)N)NC(=O)[C@H](Cc1c[nH]c2ccccc12)NC(=O)[C@H](CCCN=C(N)N)NC(=O)[C@@H](NC(=O)[C@H](CCCCN)NC(=O)[C@H](Cc1c[nH]c2ccccc12)NC(=O)[C@H](CCCN=C(N)N)NC(=O)[C@H](CC(C)C)NC(=O)[C@H](CCCN=C(N)N)NC(=O)[C@H](CCCN=C(N)N)NC(=O)[C@H](Cc1ccccc1)NC(=O)[C@@H](N)CCCN=C(N)N)[C@@H](C)O)C(=O)N[C@H]1CSSC[C@@H](C(=O)N[C@H](C(N)=O)C(C)C)NC(=O)[C@H](C(C)C)NC(=O)[C@@H]2CSSC[C@H](NC(=O)[C@H](Cc3ccc(O)cc3)NC1=O)C(=O)N[C@@H](CCCN=C(N)N)C(=O)N[C@@H](CCCN=C(N)N)C(=O)N[C@@H](CCCN=C(N)N)C(=O)N[C@@H](Cc1ccccc1)C(=O)N2` [RFRRLRWKTRWRLKKICYCRRRFCVCV]: the MIC in assay [5] was 4.01 µM (≈ 14.8 µg/mL); in the assay with Escherichia coli K88, 0.515 µM (≈ 1.9 µg/mL); in assay [1], 8.02 µM (≈ 29.6 µg/mL); in assay [6], 2.01 µM (≈ 7.39 µg/mL); in assay [7], 4.01 µM (≈ 14.8 µg/mL); in the assay on Escherichia coli ER2566, 1 µM (≈ 3.69 µg/mL). Besides, the MIC in assay [8] is 0.515 µM (≈ 1.9 µg/mL); in assay [9], 2.01 µM (≈ 7.39 µg/mL); in assay [10] it was 2.01 µM (≈ 7.39 µg/mL); in assay [11], 2.01 µM (≈ 7.39 µg/mL); in assay [12], 1 µM and 2.01 µM; in [13], 2.01 µM (≈ 7.39 µg/mL). The MIC in [14] was 4.01 µM (≈ 14.8 µg/mL); in assay [15], 4.01 µM (≈ 14.8 µg/mL); in assay [16], 4.01 µM (≈ 14.8 µg/mL); against Escherichia coli 078, 4.01 µM (≈ 14.8 µg/mL); against Escherichia coli UB1005, 2.01 µM (≈ 7.39 µg/mL); in assay [17] it was 1 µM (≈ 3.69 µg/mL). Besides, the MIC in assay [18] came out at 4.01 µM (≈ 14.8 µg/mL).

As for `CC[C@H](C)[C@H](NC(=O)[C@H](CCCCN)NC(=O)[C@@H]1CCCN1C(=O)[C@@H]1CCCN1C(=O)[C@H](CC(C)C)NC(=O)[C@H](CCCCN)NC(=O)[C@@H]1CCCN1C(=O)[C@@H]1CCCN1C(=O)[C@H](Cc1ccccc1)NC(=O)[C@H](Cc1ccccc1)NC(=O)[C@@H]1CCCN1C(=O)[C@@H]1CCCN1C(=O)[C@@H]1CCCN1C(=O)[C@H](CCCCN)NC(=O)[C@@H]1CCCN1C(=O)[C@H](CCCCN)NC(=O)[C@@H]1CCCN1C(=O)[C@H](CC(C)C)NC(=O)[C@H](Cc1ccc(O)cc1)NC(=O)[C@@H]1CCCN1C(=O)[C@@H]1CCCN1C(=O)[C@H](CCCCN)NC(=O)[C@@H]1CCCN1C(=O)[C@H](CCCCN)NC(=O)[C@H](CCCCN)NC(=O)[C@@H](N)CCCCN)C(=O)O` [KKKPKPPYLPKPKPPPFFPPKLPPKI], the MIC in assay [19], in assay [20], in assay [21], in assay [22], in [23] and in assay [24] was 21.3 µM (≈ 64 µg/mL) each time. The results for the MIC in assay [16] and in assay [25] were > 21.3 µM and 21.3 µM (≈ 64 µg/mL), respectively.
